This note sets out measurements from article doi:10.1101/2023.02.25.529946, “Development of Cell Permeable NanoBRET Probes for the Measurement of PLK1 Target Engagement in Live Cells” (bioRxiv, 2023).

This test deals with T1, PLK1 (Homo sapiens, UniProt P53350).
T1 construct: full-length PLK1, N-terminal NLuc fusion (NLuc-PLK1)
Put plainly: live-cell NanoBRET probe titration with and without excess compound […]. It counts as cell-based.

T1 sequence (P53350 whole entry, the tested form may be a part): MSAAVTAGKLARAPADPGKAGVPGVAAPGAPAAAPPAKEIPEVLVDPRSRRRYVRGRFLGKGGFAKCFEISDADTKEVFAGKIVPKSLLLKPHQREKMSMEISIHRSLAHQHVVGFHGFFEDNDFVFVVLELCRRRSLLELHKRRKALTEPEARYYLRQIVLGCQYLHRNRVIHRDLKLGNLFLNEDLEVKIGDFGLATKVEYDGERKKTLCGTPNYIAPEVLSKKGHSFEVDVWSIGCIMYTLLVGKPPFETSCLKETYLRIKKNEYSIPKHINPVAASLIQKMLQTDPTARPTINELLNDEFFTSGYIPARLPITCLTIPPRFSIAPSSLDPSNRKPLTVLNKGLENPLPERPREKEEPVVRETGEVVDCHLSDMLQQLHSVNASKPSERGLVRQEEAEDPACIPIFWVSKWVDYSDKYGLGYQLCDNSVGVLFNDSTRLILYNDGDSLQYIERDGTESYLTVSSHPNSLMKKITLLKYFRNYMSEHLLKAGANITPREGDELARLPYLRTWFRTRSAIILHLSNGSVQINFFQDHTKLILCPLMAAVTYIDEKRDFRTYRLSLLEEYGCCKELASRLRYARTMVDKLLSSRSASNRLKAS

For orientation: EC50 means the concentration at which the effect is half-maximal. Low readings indicate a more potent agent, high ones a less potent agent. `CC[C@@H]1C(=O)N(C)c2cnc(Nc3ccc(C(=O)NC4CCN(C(=O)CCOCCOCCOCCOCCNC(=O)CCc5ccc6n5[B-](F)(F)[N+]5=C(c7ccc[nH]7)C=CC5=C6)CC4)cc3OC)nc2N1C(C)C` [compound 11, (R)-N-(1-(1-(5,5-difluoro-7-(1H-pyrrol-2-yl)-5H-5^λ,6^λ-dipyrrolo[1,2-c:2',1'-f][1,3,2]diazaborinin-3-yl)-3-oxo-7,10,13,16-tetraoxa-4-azanonadecan-19-oyl)piperidin-4-yl)-4-((7-ethyl-8-isopropyl-5-methyl-6-oxo-5,6,7,8-tetrahydropteridin-2-yl)amino)-3-methoxybenzamide] registered an EC50 of 300 nM.
